Measurements reported in article PMC3429506, “Screening for Novel LRRK2 Inhibitors Using a High-Throughput TR-FRET Cellular Assay for LRRK2 Ser935 Phosphorylation” (PLoS ONE, 2012).

Legend:
LRRK2 G2019S [1] = molecular target: T1, LRRK2 G2019S (Homo sapiens, UniProt Q5S007, G2019S); test: In vitro biochemical LRRK2 TR-FRET activity assay; details: for IC50: LRRK2 G2019S, ATP 134 µM (Km,app), LRRKtide substrate, three independent experiments, read-out: Biochemical LRRK2 assay IC50 +/- SD
Experimental: The Biochemical LRRK2 TR-FRET activity assay was performed according to the manufacture recommended assay protocol (Life Technologies). […] After incubation at room temperature for 1 hour, the kinase reactions were stopped by addition of 10 µL of 20 mM EDTA and 4 nM Tb-anti-pERM (pLRRKtide) antibody in TR-FRET dilution buffer (Life Technologies). After a 30 minute incubation at room temperature, TR-FRET measurements were obtained on a BMG PHERAstar plate reader using LanthaScreen® filters and settings. A 16 point, 2-fold dilution series of each compound was tested in triplicate at each concentration and assays were also performed in triplicate.

GFP-LRRK2 G2019S = molecular target: T2, GFP-LRRK2 G2019S (Homo sapiens, UniProt Q5S007, G2019S); test: Immunoprecipitation/Western analysis of LRRK2 phosphorylation at Ser910, Ser935, Ser955, Ser973 in HEK293 T-REx GFP-LRRK2 G2019S cells; format: cell-based; details: for effect on phosphorylation of Ser910, Ser935, Ser955 and Ser973 (IP-Western): 20 µM, 90 min, HEK293 GFP-LRRK2 G2019S, Figure 6
T2 construct: expressed in transfected cells
Experimental: (§1) Immunoblot analysis: BacMam LRRK2-GFP transduced U-2 OS or SH-SY5Y cells (10^7 cells) were left untreated or treated with 3 µM LRRK2-IN-I for 90 min. For lysate preparation, the cells were washed once with ice-cold PBS and lysed by addition of ice-cold lysis buffer (20 mM Tris-HCl, pH 7.4, 1% NP-40, 5 mM EDTA, 5 mM NaF, 150 mM NaCl, and 1∶100 of protease and phosphatase inhibitor cocktails). The lysate was cleared of debris by centrifugation. Equal amount of total protein was loaded onto each lane for SDS-PAGE (3–8% Tris Acetate). The proteins were transferred onto nitrocellulose membrane using the iBLOT® dry blotting system (Life Technologies) according to manufacturer’s protocol. The membranes were blocked and incubated with a primary antibody against LRRK2 (Cell Signaling Technologies), followed by incubation with alkaline phosphatase-conjugated secondary antibody (WesternBreeze® chromogenic Kit, Life Technologies). The blot was developed by using the chromogenic BCIP/NBT substrate (WesternBreeze® chromogenic Kit, Life Technologies). […] Two days post induction, cells were treated for 90 minutes in the presence of 20 µM of compound or DMSO vehicle control. Cells were rapidly lysed in ice cold lysis buffer 50 mM Tris/HCl, pH 7.5, 1 mM EGTA, 1 mM EDTA, […] 1 mM sodium orthovanadate, 10 mM sodium beta-glycerolphosphate, 50 mM NaF, 5 mM sodium pyrophosphate, 0.27 M sucrose, 1 mM benzamidine and 2 mM phenylmethanesulphonylfluoride (PMSF) and one tablet each complete protease inhibitor and PhosSTOP phosphatase inhibitor (Roche) and was supplemented with 1% (v/v) Triton X-100. GFP-LRRK2 was immunoprecipitated with GFP nanotrap beads (ChromoTek). Immunecomplexes were washed twice with lysis buffer supplemented with 300 mM NaCl and once with Buffer A (50 mM Tris/HCl, pH 7.5, 50 mM NaCl, 0.1 mM EGTA and 0.1% (v/v) 2-mercaptoethanol, and 0.27 M sucrose).

LRRK2 A2016T/G2019S = molecular target: T3, LRRK2 A2016T/G2019S (Homo sapiens, UniProt Q5S007, A2016T/G2019S); test: Immunoprecipitation/Western analysis of LRRK2 phosphorylation in T-REx HEK293 cells expressing inhibitor desensitizing mutant; format: cell-based; details: for effect of desensitizing mutation A2016T/G2019S on compound-induced dephosphorylation (IP-Western): 20 µM, Figure 6 IRM
T3 construct: expressed in transfected cells
Experimental: as §1

[2] = system: SH-SY5Y cells expressing LRRK2-GFP G2019S; test: Cytotoxicity assay (resazurin-based cell viability); details: read-out: Cytotoxicity Assay IC50; same conditions as TR-FRET follow-up; one representative of two experiments
LRRK2 G2019S [3] = molecular target: T1, LRRK2 G2019S; test: TR-FRET cellular assay for LRRK2 Ser935 phosphorylation, SH-SY5Y cells, BacMam LRRK2-GFP G2019S (incl. Tocriscreen Mini library screen and follow-up); format: cell-based; set-up: This high-throughput assay utilizes cells expressing full-length human LRRK2 with a C-terminal GFP tag (LRRK2-GFP); host or cells: SH-SY5Y cells transduced with BacMam; details: for %Inhibition Initial screen: Tocriscreen Mini library screen, 20 µM, relative to LRRK2-IN-1 control; for Cellular TR-FRET Assay Max % Inhibition: 90 min; for IC50: three independent experiments
Experimental: (§2) U-2 OS cells are maintained in growth medium (McCoy’s 5A supplemented with 10% dialyzed FBS (dFBS), 10 mM HEPES, 0.1 mM NEAA, 1 mM Sodium Pyruvate, and 100 U/mL Penicillin/100 µg/mL Streptomycin). HEK293T cells are maintained in DMEM with 10% dFBS, 10 mM HEPES, 0.1 mM NEAA and 100 U/mL Penicillin/100 µg/mL Streptomycin. SH-SY5Y cells are maintained in DMEM/F-12 medium supplemented with 10% dFBS and 100 U/mL Penicillin/100 µg/mL Streptomycin. […] GIBCO® human neural stem cells (hNSCs) were propagated as an adherent culture in StemPro® NSC SFM according to the manufacturer’s recommended protocol (Life Technologies). For BacMam transduction of U-2 OS and HEK293T, cells were harvested, mixed with various amounts of BacMam LRRK2-GFP reagent (v/v) and plated onto 6-well plates. […] Cells were assayed in 384-well format (∼20,000 cells/well) 48 hours post-transduction as above.
(§3) Transduced cells in the 384-well assay plate were incubated with indicated inhibitors (5X, 5 µL/well) for 60 to 90 minutes. During this time, 6 X lysis buffer (Life Technologies) was supplemented with 30 nM Tb-labeled anti-LRRK2 pSer935 antibody and both protease and phosphatase inhibitor cocktails (Sigma). The complete 6 X lysis buffer was added to each well (5 µL/well) and the plates were incubated at room temperature in the dark for 2 hours. […] A sigmoidal dose-response equation with varying slope was used to fit the data and generate IC50 values. Z′-factor values were calculated as: Z′-factor = 1 - [(3 × stdevno virus +3 × stdevmaxvirus)/(avgmaxvirus – avgno-virus)]. The IC50 values reported in Table 1 are the averaged numbers from three independent experiments.
40 nL of 10 mM Tocris library compounds in DMSO were dispensed into each well of the assay plate by the ECHO system. Equal volumes of DMSO were dispensed into the control wells. Cells were incubated with compounds for 90 to 120 min prior to cell lysis and detection as described above. The percent inhibition is calculated as: [(average emission ratios of DMSO control wells – average emission ratios of compound wells)/(average emission ratios of DMSO control wells – average emission ratios of LRRK2-IN-1 treated wells)] * 100. For the dose-response follow-up studies, fresh compound DMSO stock solutions were prepared from powder. […] Z′-factor value was calculated as: Z′-factor = 1 - [(3 × stdevLRRK2-IN-1+3 × stdevDMSO)/(avgDMSO – avgLRRK2-IN-1)]. The IC50 values reported in Table 2 are the averaged numbers from three independent experiments for both cellular and biochemical TR-FRET assays and one representative result of two independent experiments for the cytotoxicity assay.

LRRK2 wild-type [4] = molecular target: T4, LRRK2 wild-type (Homo sapiens, UniProt Q5S007); test: TR-FRET cellular assay for LRRK2 Ser935 phosphorylation, U-2 OS cells, BacMam LRRK2-GFP wild-type; format: cell-based; set-up: This high-throughput assay utilizes cells expressing full-length human LRRK2 with a C-terminal GFP tag (LRRK2-GFP); host or cells: U-2 OS cells transduced with BacMam; details: WT, +/- SD, three independent experiments, * = partial inhibition, read-out: IC50, TR-FRET cell-based assay for Ser935 phosphorylation of LRRK2
Experimental: as §2, §3

LRRK2 wild-type [5] = molecular target: T4, LRRK2 wild-type; test: TR-FRET cellular assay for LRRK2 Ser935 phosphorylation, SH-SY5Y cells, BacMam LRRK2-GFP wild-type; format: cell-based; set-up: This high-throughput assay utilizes cells expressing full-length human LRRK2 with a C-terminal GFP tag (LRRK2-GFP); host or cells: SH-SY5Y cells transduced with BacMam; details: WT, +/- SD, three independent experiments, * = partial inhibition, read-out: IC50, TR-FRET cell-based assay for Ser935 phosphorylation of LRRK2
Experimental: as §2, §3

LRRK2 wild-type [6] = molecular target: T4, LRRK2 wild-type; test: TR-FRET cellular assay for LRRK2 Ser935 phosphorylation, HEK293T cells, BacMam LRRK2-GFP wild-type; set-up: This high-throughput assay utilizes cells expressing full-length human LRRK2 with a C-terminal GFP tag (LRRK2-GFP); host or cells: HEK293T cells transduced with BacMam; details: WT, +/- SD, three independent experiments, * = partial inhibition, read-out: IC50, TR-FRET cell-based assay for Ser935 phosphorylation of LRRK2
Experimental: as §2, §3

LRRK2 G2019S [7] = molecular target: T1, LRRK2 G2019S; test: TR-FRET cellular assay for LRRK2 Ser935 phosphorylation, HEK293T cells, BacMam LRRK2-GFP G2019S; set-up: This high-throughput assay utilizes cells expressing full-length human LRRK2 with a C-terminal GFP tag (LRRK2-GFP); host or cells: HEK293T cells transduced with BacMam; details: +/- SD, three independent experiments, * = partial inhibition, read-out: IC50, TR-FRET cell-based assay for Ser935 phosphorylation of LRRK2
Experimental: as §2, §3

LRRK2 G2019S [8] = molecular target: T1, LRRK2 G2019S; test: TR-FRET cellular assay for LRRK2 Ser935 phosphorylation, U-2 OS cells, BacMam LRRK2-GFP G2019S; format: cell-based; set-up: This high-throughput assay utilizes cells expressing full-length human LRRK2 with a C-terminal GFP tag (LRRK2-GFP); host or cells: U-2 OS, SH-SY5Y, HEK293T cells or human neural stem cells transduced with BacMam; details: G2019S, +/- SD, three independent experiments, * = partial inhibition, read-out: IC50, TR-FRET cell-based assay for Ser935 phosphorylation of LRRK2
Experimental: as §2, §3

[9] = dose-response follow-up, SH-SY5Y G2019S
[10] = dose-response follow-up, SH-SY5Y G2019S, read-out: Cellular TR-FRET Assay IC50 +/-SD

T3 sequence (Q5S007 whole entry A2016T/G2019S): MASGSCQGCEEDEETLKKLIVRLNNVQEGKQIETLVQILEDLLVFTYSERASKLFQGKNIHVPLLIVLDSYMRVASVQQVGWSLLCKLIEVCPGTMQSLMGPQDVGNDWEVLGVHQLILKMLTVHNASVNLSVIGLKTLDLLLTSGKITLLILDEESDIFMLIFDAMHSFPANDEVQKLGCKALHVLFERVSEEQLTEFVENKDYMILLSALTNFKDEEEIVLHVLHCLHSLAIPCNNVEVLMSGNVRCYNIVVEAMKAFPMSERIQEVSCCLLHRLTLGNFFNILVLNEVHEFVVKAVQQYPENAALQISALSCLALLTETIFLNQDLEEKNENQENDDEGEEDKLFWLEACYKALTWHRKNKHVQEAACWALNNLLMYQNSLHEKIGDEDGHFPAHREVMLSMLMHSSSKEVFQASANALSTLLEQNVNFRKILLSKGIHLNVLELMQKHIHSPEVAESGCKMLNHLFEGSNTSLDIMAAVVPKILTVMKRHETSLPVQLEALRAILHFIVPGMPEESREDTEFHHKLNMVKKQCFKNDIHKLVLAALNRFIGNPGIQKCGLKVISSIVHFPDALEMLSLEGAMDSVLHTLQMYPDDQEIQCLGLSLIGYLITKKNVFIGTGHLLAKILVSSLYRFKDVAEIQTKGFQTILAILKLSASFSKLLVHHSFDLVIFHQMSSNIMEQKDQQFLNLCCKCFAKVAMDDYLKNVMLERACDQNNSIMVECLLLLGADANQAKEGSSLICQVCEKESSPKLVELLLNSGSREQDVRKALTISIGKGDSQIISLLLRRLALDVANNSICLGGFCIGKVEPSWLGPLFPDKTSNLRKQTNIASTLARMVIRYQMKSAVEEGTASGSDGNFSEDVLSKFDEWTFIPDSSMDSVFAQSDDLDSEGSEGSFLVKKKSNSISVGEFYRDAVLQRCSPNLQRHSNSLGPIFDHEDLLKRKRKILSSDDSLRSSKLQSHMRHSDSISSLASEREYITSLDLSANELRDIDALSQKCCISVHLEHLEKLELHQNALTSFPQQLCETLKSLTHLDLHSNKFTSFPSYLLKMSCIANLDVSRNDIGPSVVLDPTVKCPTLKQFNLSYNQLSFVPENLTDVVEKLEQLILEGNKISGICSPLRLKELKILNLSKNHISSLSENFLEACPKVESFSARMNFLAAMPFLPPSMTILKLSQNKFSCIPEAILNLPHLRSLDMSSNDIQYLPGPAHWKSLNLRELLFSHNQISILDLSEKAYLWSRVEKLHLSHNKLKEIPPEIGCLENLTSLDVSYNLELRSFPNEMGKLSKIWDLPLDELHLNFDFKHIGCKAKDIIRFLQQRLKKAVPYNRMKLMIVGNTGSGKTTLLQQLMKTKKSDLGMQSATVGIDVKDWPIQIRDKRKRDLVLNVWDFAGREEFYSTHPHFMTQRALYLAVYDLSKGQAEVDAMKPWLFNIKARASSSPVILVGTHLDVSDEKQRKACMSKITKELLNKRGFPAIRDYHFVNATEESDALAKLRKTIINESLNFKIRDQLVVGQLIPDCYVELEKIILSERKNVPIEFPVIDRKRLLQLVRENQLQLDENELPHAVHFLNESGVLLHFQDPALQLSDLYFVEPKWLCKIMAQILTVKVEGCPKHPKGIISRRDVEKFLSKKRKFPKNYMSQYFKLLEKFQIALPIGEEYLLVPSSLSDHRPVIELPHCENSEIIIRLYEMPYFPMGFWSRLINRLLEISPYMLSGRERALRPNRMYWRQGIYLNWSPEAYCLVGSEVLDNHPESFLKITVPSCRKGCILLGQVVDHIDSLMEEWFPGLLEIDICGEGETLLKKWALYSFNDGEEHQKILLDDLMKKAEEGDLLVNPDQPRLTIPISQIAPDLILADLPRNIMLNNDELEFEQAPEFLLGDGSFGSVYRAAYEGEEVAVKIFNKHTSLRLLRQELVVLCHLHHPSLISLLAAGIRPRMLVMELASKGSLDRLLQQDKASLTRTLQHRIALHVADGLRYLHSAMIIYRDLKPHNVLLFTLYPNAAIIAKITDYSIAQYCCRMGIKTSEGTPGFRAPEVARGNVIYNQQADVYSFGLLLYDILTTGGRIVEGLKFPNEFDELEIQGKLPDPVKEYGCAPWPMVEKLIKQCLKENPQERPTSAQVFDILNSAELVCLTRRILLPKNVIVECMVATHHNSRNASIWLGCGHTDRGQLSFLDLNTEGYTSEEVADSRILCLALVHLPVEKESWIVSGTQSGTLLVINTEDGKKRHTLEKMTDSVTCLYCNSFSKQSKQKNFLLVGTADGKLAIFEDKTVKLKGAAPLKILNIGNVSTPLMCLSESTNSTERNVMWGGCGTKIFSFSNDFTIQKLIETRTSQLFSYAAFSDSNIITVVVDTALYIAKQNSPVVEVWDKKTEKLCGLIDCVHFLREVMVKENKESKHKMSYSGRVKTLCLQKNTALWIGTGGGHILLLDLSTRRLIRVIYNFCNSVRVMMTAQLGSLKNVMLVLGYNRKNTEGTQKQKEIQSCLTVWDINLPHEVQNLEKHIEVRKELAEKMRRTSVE
T4 sequence (Q5S007 whole entry): as the sequence (Q5S007 whole entry A2016T/G2019S) above, with T2016A, S2019G counted along it
T2 sequence (Q5S007 whole entry G2019S): as the sequence (Q5S007 whole entry A2016T/G2019S) above, with T2016A counted along it
T1 sequence (Q5S007 whole entry G2019S): as the sequence (Q5S007 whole entry A2016T/G2019S) above, with T2016A counted along it

Cc1ccc(S(=O)(=O)/C=C/C#N)cc1 [Bay 11-7821]
IC50 (LRRK2 G2019S [1]): > 100 µM
effect on LRRK2 activity in vitro (LRRK2 G2019S [1]; result in words): did not repress LRRK2 activity in vitro
effect on phosphorylation of Ser910, Ser935, Ser955 and Ser973 (IP-Western) (GFP-LRRK2 G2019S): moderately reduced phosphorylation of all four residues
LRRK2 phosphorylation remaining, % of untreated G2019S (GFP-LRRK2 G2019S; 293 cells, LRRK2 G2019S): 50%
effect of desensitizing mutation A2016T/G2019S on compound-induced dephosphorylation (IP-Western) (LRRK2 A2016T/G2019S): did not appear to be changed
LRRK2 phosphorylation remaining, % of untreated G2019S (LRRK2 A2016T/G2019S; 293 cells, LRRK2 G2019S/A2016T): 50%
IC50 [2]: 20 µM
%Inhibition Initial screen (LRRK2 G2019S [3]; SH-SY5Y G2019S): 85.5%
Cellular TR-FRET Assay Max % Inhibition (LRRK2 G2019S [3]; [9]): 94%
IC50 (LRRK2 G2019S [3]; [10]): 4 µM

O=C1Nc2ccc(I)cc2/C1=C/c1cc(Br)c(O)c(Br)c1 [GW5074]
IC50 (LRRK2 wild-type [4]): > 20 µM
IC50 (LRRK2 wild-type [5]): > 20 µM
IC50 (LRRK2 G2019S [3]; SH-SY5Y, G2019S, +/- SD, * = partial inhibition, read-out: IC50, TR-FRET cell-based assay for Ser935 phosphorylation of LRRK2): > 20 µM
IC50 (LRRK2 wild-type [6]): > 20 µM
IC50 (LRRK2 G2019S [7]): 0.28 µM
IC50 (LRRK2 G2019S [8]): 0.47 µM

Cn1cc(/C=C2\C(=O)Nc3cccnc32)c2ccccc21 [GW 441756]
IC50 (LRRK2 G2019S [1]): 0.32 µM
effect on phosphorylation of Ser910, Ser935, Ser955 and Ser973 (IP-Western) (GFP-LRRK2 G2019S): inhibited phosphorylation of Ser910, Ser935, Ser955 and Ser973
effect of desensitizing mutation A2016T/G2019S on compound-induced dephosphorylation (IP-Western) (LRRK2 A2016T/G2019S): rescued phosphorylation
IC50 [2]: > 20 µM
%Inhibition Initial screen (LRRK2 G2019S [3]; SH-SY5Y G2019S): 69.7%
Cellular TR-FRET Assay Max % Inhibition (LRRK2 G2019S [3]; [9]): 72%
IC50 (LRRK2 G2019S [3]; [10]): 2.2 µM
